From patent publication US11987588B2, “Modulators of the beta-3 adrenergic receptor useful for the treatment or prevention of heart failure and disorders related thereto” (Arena Pharmaceuticals, Inc., priority 2017, dated 2024)

Biological target: Beta-3 Adrenergic Receptor (Homo sapiens (Human), UniProt P13945)
Experiment: Homogeneous Time-Resolved Fluorescence (HTRF) cAMP antagonist assay, IC50 determination
Format: cell-based
Details: CHO-K1 cells stably expressing recombinant receptor, isoproterenol at EC90
Outline: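 CHO-K1 cells stably expressing receptor, 1500 cells/well, preincubated briefly with 10-point 5-fold compound series (top final typically 10 or 100 μM) in PBS with 1 mM IBMX, then challenged with isoproterenol at EC90 for 1 h at room temperature. cAMP read by HTRF against on-plate standard curve; IC50 from dose-response.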

Chain of Beta-3 Adrenergic Receptor (P13945 whole entry, species assumed): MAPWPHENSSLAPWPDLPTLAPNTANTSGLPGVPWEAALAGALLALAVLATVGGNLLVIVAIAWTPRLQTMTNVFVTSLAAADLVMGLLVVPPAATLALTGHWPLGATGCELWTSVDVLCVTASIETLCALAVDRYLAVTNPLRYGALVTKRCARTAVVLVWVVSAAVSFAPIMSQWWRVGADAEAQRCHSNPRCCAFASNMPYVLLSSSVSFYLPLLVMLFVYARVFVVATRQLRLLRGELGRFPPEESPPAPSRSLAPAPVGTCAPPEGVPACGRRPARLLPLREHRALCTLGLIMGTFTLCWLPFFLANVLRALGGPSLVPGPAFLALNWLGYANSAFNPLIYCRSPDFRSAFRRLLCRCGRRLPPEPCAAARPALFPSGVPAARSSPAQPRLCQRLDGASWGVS

SMILES	IC50 [nM]
CCn1cc(S(=O)(=O)N2CCC3(CC2)C[C@@H](NC[C@H](O)COc2cccc(S(=O)(=O)NC)c2)CO3)c(=O)c2cccc(C)c21 [Compound 545, 3-((S)-3-((R)-8-(1-ethyl-8-methyl-4-oxo-1,4-dihydroquinolin-3-ylsulfonyl)-1-oxa-8-azaspiro[4.5]decan-3-ylamino)-2-hydroxypropoxy)-N-methylbenzenesulfonamide]	121
CCNS(=O)(=O)c1cccc(OC[C@@H](O)CNC2COC3(CCN(S(=O)(=O)c4ccc(Br)c(C)c4)CC3)C2)c1 (stereo partly drawn) [Compound 227, 3-((2S)-3-(8-(4-bromo-3-methylphenylsulfonyl)-1-oxa-8-azaspiro[4.5]decan-3-ylamino)-2-hydroxypropoxy)-N-ethylbenzenesulfonamide]	31.3
CNS(=O)(=O)c1cccc(OC[C@@H](O)CNC2COC3(CCN(S(=O)(=O)c4cccc(C)c4C)CC3)C2)c1 (stereo partly drawn) [Compound 265, 3-((2S)-3-(8-(2,3-dimethylphenylsulfonyl)-1-oxa-8-azaspiro[4.5]decan-3-ylamino)-2-hydroxypropoxy)-N-methylbenzenesulfonamide]	28.8
CNS(=O)(=O)c1cccc(OC[C@@H](O)CNC2COC3(CCN(S(=O)(=O)c4cc(Cl)ccc4C)CC3)C2)c1 (stereo partly drawn) [Compound 240, 3-((2S)-3-(8-(5-chloro-2-methylphenylsulfonyl)-1-oxa-8-azaspiro[4.5]decan-3-ylamino)-2-hydroxypropoxy)-N-methylbenzenesulfonamide]	28.4
CNS(=O)(=O)c1cccc(OC[C@@H](O)CNC2COC3(CCN(S(=O)(=O)c4cc(C#N)ccc4C)CC3)C2)c1 (stereo partly drawn) [Compound 217, 3-((2S)-3-(8-(5-cyano-2-methylphenylsulfonyl)-1-oxa-8-azaspiro[4.5]decan-3-ylamino)-2-hydroxypropoxy)-N-methylbenzenesulfonamide]	35.1
CNS(=O)(=O)c1cccc(OC[C@@H](O)CN[C@H]2COC3(CCN(S(=O)(=O)c4cccc(-c5ccc(CNCC(C)C)cc5)c4)CC3)C2)c1 [Compound 363, 3-((S)-2-hydroxy-3-((R)-8-(4′-((isobutylamino)methyl)biphenyl-3-ylsulfonyl)-1-oxa-8-azaspiro[4.5]decan-3-ylamino)propoxy)-N-methylbenzenesulfonamide]	123
CNS(=O)(=O)c1cccc(OC[C@@H](O)CNC2COC3(CCN(S(=O)(=O)c4ccc(OC)c(F)c4)CC3)C2)c1 (stereo partly drawn) [Compound 195, 3-((2S)-3-(8-(3-fluoro-4-methoxyphenylsulfonyl)-1-oxa-8-azaspiro[4.5]decan-3-ylamino)-2-hydroxypropoxy)-N-methylbenzenesulfonamide]	23.4

Stronger by IC50, values ahead:

IC50 [nM]	SMILES
14.9	CNS(=O)(=O)c1cccc(OC[C@@H](O)CNC2COC3(CCN(S(=O)(=O)c4cc(S(C)(=O)=O)ccc4Cl)CC3)C2)c1 (stereo partly drawn) [Compound 203, 3-((2S)-3-(8-(2-chloro-5-(methylsulfonyl)phenylsulfonyl)-1-oxa-8-azaspiro[4.5]decan-3-ylamino)-2-hydroxypropoxy)-N-methylbenzenesulfonamide]
14.5	CNS(=O)(=O)c1cccc(OC[C@@H](O)CNC2COC3(CCN(S(=O)(=O)c4cccc(-c5c(C)noc5C)c4)CC3)C2)c1 (stereo partly drawn) [Compound 59, 3-((2S)-3-(8-(3-(3,5-dimethylisoxazol-4-yl)phenylsulfonyl)-1-oxa-8-azaspiro[4.5]decan-3-ylamino)-2-hydroxypropoxy)-N-methylbenzenesulfonamide]
13.2	CNS(=O)(=O)c1cccc(OC[C@@H](O)CNC2COC3(CCN(S(=O)(=O)c4cccc(Br)c4)CC3)C2)c1 (stereo partly drawn) [Compound 20, 3-((2S)-3-(8-(3-bromophenylsulfonyl)-1-oxa-8-azaspiro[4.5]decan-3-ylamino)-2-hydroxypropoxy)-N-methylbenzenesulfonamide]
10.3	CNS(=O)(=O)c1cccc(OC[C@@H](O)CNC2COC3(CCN(S(=O)(=O)c4cccc(-c5ccc(OCC#N)cc5)c4)CC3)C2)c1 (stereo partly drawn) [Compound 114, 3-((2S)-3-(8-(4′-(cyanomethoxy)biphenyl-3-ylsulfonyl)-1-oxa-8-azaspiro[4.5]decan-3-ylamino)-2-hydroxypropoxy)-N-methylbenzenesulfonamide]
